Test results taken from BindingDB's records for doi:10.7270/Q2J101KZ (University of Pittsburgh, 2007).

These molecules were tested against T1, M-phase inducer phosphatase 2 (Homo sapiens, UniProt P30305) (assay: Cdc25B catalytic domain phosphatase inhibitors, dose response, biochemical, with glutathione, probe assessment (AID 671)).
T1 sequence (P30305 whole entry): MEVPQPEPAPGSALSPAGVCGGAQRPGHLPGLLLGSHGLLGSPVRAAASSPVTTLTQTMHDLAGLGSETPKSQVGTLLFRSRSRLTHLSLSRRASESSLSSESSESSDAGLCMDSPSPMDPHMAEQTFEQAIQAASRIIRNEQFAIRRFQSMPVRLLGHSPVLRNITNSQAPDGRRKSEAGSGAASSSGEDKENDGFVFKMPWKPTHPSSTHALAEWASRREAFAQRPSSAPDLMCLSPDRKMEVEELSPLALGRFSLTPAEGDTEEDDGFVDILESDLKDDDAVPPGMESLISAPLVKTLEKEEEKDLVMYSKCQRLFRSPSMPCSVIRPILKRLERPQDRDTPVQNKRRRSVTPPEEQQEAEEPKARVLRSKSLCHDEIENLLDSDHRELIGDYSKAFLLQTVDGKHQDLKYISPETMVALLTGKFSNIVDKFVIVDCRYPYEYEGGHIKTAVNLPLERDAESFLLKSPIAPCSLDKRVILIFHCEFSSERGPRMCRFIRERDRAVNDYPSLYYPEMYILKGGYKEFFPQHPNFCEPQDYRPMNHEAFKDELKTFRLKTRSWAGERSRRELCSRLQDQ

Compound | IC50
Cn1ncnc2c(=O)n(C)c(=O)nc1-2 | 35.5 µM
[O-]/[N+](=C\c1ccncc1)c1ccccc1 | > 50 µM
O=C1C=Cc2ccccc2C1=O [1,2-dihydronaphthalene-1,2-dione] | 25 µM
CCn1nc(-c2ccccc2)nc2c(=O)n(C)c(=O)nc1-2 [1-Ethyl-6-methyl-3-phenyl-1H-pyrimido[5,4-e][1,2,4]triazine-5,7-dione] | > 50 µM
CCn1nc(-c2cccs2)nc2c(=O)n(C)c(=O)nc1-2 [1-ethyl-6-methyl-3-thiophen-2-yl-pyrimido[5,4-e][1,2,4]triazine-5,7-dione] | > 50 µM
N#Cc1c(N)sc(=S)c2c1CCN(Cc1ccccc1)C2 [3-Amino-7-benzyl-1-thioxo-5,6,7,8-tetrahydro-1H-thiopyrano[3,4-c]pyridine-4-carbonitrile] | 43 µM
Cc1ccccc1Nc1cc2ccccc2c(O)n1 [3-[(2-methylphenyl)amino]-2H-isoquinolin-1-one] | > 50 µM
CC(=O)Nc1cc(OC(C)=O)c2nonc2c1OC(C)=O [Acetic acid 7-acetoxy-5-acetylamino-benzo[1,2,5]oxadiazol-4-yl ester] | > 50 µM
CCOC(=O)C(C(=O)OCC)c1cc(Br)c2noc3c2c1C(=O)c1ccccc1-3 [MLS000038842] | > 50 µM
Oc1nc(Nc2ccccc2)cc2ccccc12 [MLS000043701] | > 50 µM
O=C(OC1CCCCC1)c1ccc2c(c1)C1C=CCC1C(C(=O)O)N2 (stereo unspecified) [SMR000019385] | 2.79 µM

The next lines start with the values.

IC50 | Compound
23.7 µM | O=C(Nc1ccc2nc(-c3ccco3)c(-c3ccco3)nc2c1)N1CCCCCC1
4.73 µM | Cc1ccc2c(c1C)NC(C(=O)O)C1CC=CC21 (stereo unspecified)
6.76 µM | O=C(O)C1Nc2c(O)cccc2C2C=CCC12 (stereo unspecified)
6.8 µM | COc1cccc2c(C)c(C(=O)O)[nH]c12
> 50 µM | [O-]/[N+](=C\c1ccc(OC(F)F)cc1)c1ccccc1 [1-[4-(difluoromethoxy)phenyl]-N-phenylmethanimine oxide]
> 50 µM | O=C1Cc2ccccc2C(=O)N1CCc1ccccc1 [2-(2-phenylethyl)-4H-isoquinoline-1,3-dione]
2.13 µM | COc1ccc(Br)cc1C=c1sc2nc(-c3ccco3)nn2c1=O [5-[(5-bromanyl-2-methoxy-phenyl)methylidene]-2-(furan-2-yl)-[1,3]thiazolo[3,2-b][1,2,4]triazol-6-one]
> 50 µM | Cc1c(N=c2c(=O)c3ccccc3c2=O)c(=O)n(-c2ccccc2)n1C [MLS000105950]
> 50 µM | CCOc1ccc2noc3c2c1C(=O)c1ccccc1-3 [MLS000106837]
> 50 µM | COc1ccc2noc3c2c1C(=O)c1ccccc1-3 [MLS000106874]
11.1 µM | c1ccc(CSc2nnc(-c3ccco3)c(-c3ccco3)n2)cc1 [MLS-0029114.0001]
> 50 µM | O=C(NC1(O)C(=O)c2ccccc2C1=O)c1ccccc1 [N-(2-hydroxy-1,3-dioxo-2-indenyl)benzamide]
8.23 µM | COc1cccc2c1NC(C(=O)O)C1CC=CC21 (stereo unspecified) [SMR000009698]
> 50 µM | N#Cc1c(N2CCCC2)nc(N)c2c(N)nc(N3CCCC3)cc12 [SMR000061605]
> 50 µM | Nc1cccc2cnccc12 [isoquinolin-5-amine]
